Patent US9630961B2, “Arginine methyltransferase inhibitors and uses thereof” (Epizyme, Inc., priority 2013, dated 2017)

Molecular target: T1, PRMT6 (Homo sapiens, UniProt Q96LA8)
T1 construct: Flag-PRMT6-His; made in house; host or cells: HEK 293F cells (BacMam virus)
Test: PRMT6 Biochemical Assay (3H-SAM Flashplate, peptide substrate)
Conditions: 30 min preincubation, room temperature
Text: S-adenosylmethionine (SAM), S-adenosylhomocysteine (SAH), bicine, Tween20, dimethylsulfoxide (DMSO), bovine skin gelatin (BSG), sodium butyrate and Tris(2-carboxyethyl)phosphine hydrochloride solution (TCEP) were purchased from Sigma-Aldrich at the highest level of purity possible. ^3H-SAM was purchase from American Radiolabeled Chemicals with a specific activity of 80 Ci/mmol. 384-well streptavidin Flashplates were purchased from PerkinElmer.
Peptide representative of human histone H4 residues 36-50 was synthesized with an N-terminal linker-affinity tag motif and a C-terminal amide cap by 21st Century Biochemicals. The peptide was purified by high-performance liquid chromatography (HPLC) to greater than 95% purity and confirmed by liquid chromatography mass spectrometry (LC-MS). The sequence was Biot-Ahx-[…]-amide and contained a monomethylated lysine at position 44 (SEQ ID NO.:5).
Full-length human PRMT6 (NM_018137.2) transcript clone was amplified from an HEK 293 cDNA library, incorporating a flanking 5′ sequence encoding a FLAG tag ([…]) (SEQ ID NO.:6) fused directly to Ser 2 of PRMT6 and a 3′ sequence encoding a hexa His sequence (HHHHHH) fused directly to Asp 375. The amplified gene was subcloned into pFastBacMam (Viva Biotech).
Recombinant baculovirus were generated according to Bac-to-Bac kit instructions (Life Technologies). […] Infections were carried out at 37° C. for 48 hours, harvested by centrifugation, and stored at −80° C. for purification.
Column was washed with 20 mM imidazole in the same buffer and Flag-PRMT6-His was eluted with 150 mM imidazole. Pooled fractions were dialysed against buffer Ni-A and further purified by anti-flag M2 affinity chromatography. Flag-PRMT6-His was eluted with 200 ug/ml FLAG peptide in the same buffer. Pooled fractions were dialysed in 20 mM Tris, 150 mM NaCl, 10% glycerol and 5 mM β-mercaptoethanol, pH 7.8. The purity of recovered protein was 95%.
General Procedure for PRMT6 Enzyme Assays on Peptide Substrates.
The assays were all performed in a buffer consisting of 20 mM Bicine (pH=7.6), 1 mM TCEP, 0.005% BSG, and 0.002% Tween 20, prepared on the day of use. Compounds in 100% DMSO (1 ul) were spotted into a polypropylene 384-well V-bottom plates (Greiner) using a Platemate Plus outfitted with a 384-channel head (Thermo Scientific). DMSO (1 ul) was added to Columns 11, 12, 23, 24, rows A-H for the maximum signal control and 1 ul of SAH, a known product and inhibitor of PRMT6, was added to columns 11, 12, 23, 24, rows I-P for the minimum signal control. A cocktail (40 ul) containing the PRMT6 enzyme was added by Multidrop Combi (Thermo-Fisher). The compounds were allowed to incubate with PRMT6 for 30 min at room temperature, then a cocktail (10 ul) containing SAM and peptide was added to initiate the reaction (final volume=51 ul). The final concentrations of the components were as follows: PRMT6 was 1 nM, ^3H-SAM was 200 nM, non-radiolabeled SAM was 250 nM, peptide was 75 nM, SAH in the minimum signal control wells was 1 mM, and the DMSO concentration was 2%. The assays were stopped by the addition of non-radiolabeled SAM (10 ul) to a final concentration of 400 uM, which dilutes the ^3H-SAM to a level where its incorporation into the peptide substrate is no longer detectable. 50 ul of the reaction in the 384-well polypropylene plate was then transferred to a 384-well Flashplate and the biotinylated peptides were allowed to bind to the streptavidin surface for at least 1 hour before being washed once with 0.1% Tween20 in a Biotek ELx405 plate washer. The plates were then read in a PerkinElmer TopCount plate reader to measure the quantity of ^3H-labeled peptide bound to the Flashplate surface, measured as disintegrations per minute (dpm) or alternatively, referred to as counts per minute (cpm).
Where dpm=disintegrations per minute, cmpd=signal in assay well, and min and max are the respective minimum and maximum signal controls. […]

T1 sequence (Q96LA8 with tags, fused parts or gaps): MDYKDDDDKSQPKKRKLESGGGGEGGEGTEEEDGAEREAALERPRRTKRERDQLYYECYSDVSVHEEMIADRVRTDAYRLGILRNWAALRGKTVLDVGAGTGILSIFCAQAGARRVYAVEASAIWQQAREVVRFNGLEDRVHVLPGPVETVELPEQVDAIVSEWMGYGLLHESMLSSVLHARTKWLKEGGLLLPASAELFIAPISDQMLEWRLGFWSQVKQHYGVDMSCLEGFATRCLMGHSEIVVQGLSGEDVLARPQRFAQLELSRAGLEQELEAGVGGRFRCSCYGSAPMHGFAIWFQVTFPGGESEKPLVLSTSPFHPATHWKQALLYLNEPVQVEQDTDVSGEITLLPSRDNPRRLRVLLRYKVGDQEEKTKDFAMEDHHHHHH

Compound	IC50 [µM]
CN(CCN)Cc1c[nH]nc1-c1ccsc1 [Compound 3]	≤ 0.1
CN(CCN)Cc1c[nH]nc1-c1cncnc1 [Compound 4]	0.101 to 1
CN(CCN)Cc1c[nH]nc1-c1cccs1 [Compound 5]	0.101 to 1
CN(CCN)Cc1c[nH]nc1-c1ccco1 [Compound 6]	0.101 to 1
CN(CCN)Cc1c[nH]nc1-c1ccoc1 [Compound 7]	0.101 to 1
CN(CCN)Cc1c[nH]nc1-c1cnn(C)c1 [Compound 8]	≤ 0.1
CN(CCN)Cc1c[nH]nc1-c1ccc2scnc2c1 [Compound 9]	≤ 0.1
Cc1noc(C)c1-c1n[nH]cc1CN(C)CCN [Compound 10]	≥ 10
COc1ncc(-c2n[nH]cc2CN(C)CCN)cn1 [Compound 11]	0.101 to 1
CN(CCN)Cc1c[nH]nc1-c1cn[nH]c1 [Compound 12]	0.101 to 1
CN(CCN)Cc1c[nH]nc1-c1cnc2[nH]ccc2c1 [Compound 13]	≤ 0.1
CN(CCN)Cc1c[nH]nc1-c1cc[nH]n1 [Compound 14]	1.01 to 3
CN(CCN)Cc1c[nH]nc1-c1ccnn1C [Compound 15]	1.01 to 3
CCn1cc(-c2n[nH]cc2CN(C)CCN)cn1 [Compound 16]	≤ 0.1
CN(CCN)Cc1c[nH]nc1-c1cnn(-c2ccccc2)c1 [Compound 17]	≤ 0.1
CN(CCN)Cc1c[nH]nc1-c1cnn(CCO)c1 [Compound 18]	≤ 0.1
CN(CCN)Cc1c[nH]nc1-c1ccc2cnn(C)c2c1 [Compound 19, N^1-methyl-N^1-((3-(1-methyl-1H-indazol-6-yl)-1H-pyrazol-4-yl)methyl)ethane-1,2-diamine]	≤ 0.1
CN(CCN)Cc1c[nH]nc1-c1ccc2ncnn2c1 [Compound 20]	≤ 0.1
CN(CCN)Cc1c[nH]nc1-c1ccc2nccn2c1 [Compound 21, N^1-((3-(imidazo[1,2-a]pyridin-6-yl)-1H-pyrazol-4-yl)methyl)-N^1-methylethane-1,2-diamine]	≤ 0.1
CC(C)n1cc(-c2n[nH]cc2CN(C)CCN)cn1 [Compound 22]	≤ 0.1
CC(C)Cn1cc(-c2n[nH]cc2CN(C)CCN)cn1 [Compound 23, N^1-((2′-isobutyl-3,4′-bi(1H-pyrazol)-4-yl)methyl)-N^1-methylethane-1,2-diamine]	≤ 0.1
CN(CCN)Cc1c[nH]nc1-c1cnn(Cc2ccccc2)c1 [Compound 24, N^1-((1′-benzyl-3,4′-bi(1H-pyrazol)-4-yl)methyl)-N^1-methylethane-1,2-diamine]	≤ 0.1
Cc1n[nH]c(C)c1-c1n[nH]cc1CN(C)CCN [Compound 25]	≥ 10
CN(CCN)Cc1c[nH]nc1-c1ccc2[nH]ncc2c1 [Compound 27, N^1-((3-(1H-indazol-5-yl)-1H-pyrazol-4-yl)methyl)-N^1-methylethane-1,2-diamine]	≤ 0.1
CN(CCN)Cc1c[nH]nc1-c1cnc(C2CC2)nc1 [Compound 28]	0.101 to 1
CN(CCN)Cc1c[nH]nc1-c1ccc[nH]1 [Compound 29]	1.01 to 3
CN(CCN)Cc1c[nH]nc1-c1cccc2[nH]ncc12 [Compound 30]	≤ 0.1
